Legend:
Format in all cases: cell-based, human
BxPC3-SMAD4+ = assay: XTT cell viability assay, BxPC3-SMAD4+; settings: BxPC3-SMAD4+ vs BxPC3, XTT, 48 hours; TGFβ1 0.02 ng/ml, NT-S100A8 50 nM
Protocol: Supplementary file 1478-811X-12-20-S7.tiff: Additional file 7: Figure S6 XTT cell viability assay results. BxPC3 (empty columns) and BxPC3-SMAD4+ (filled columns) were seeded in a 96 well culture plate (2000 cells/well) and cultured for 48 hours, A: in absence (control) or in presence of TGFβ1 (0.02 ng/ml) and NT-S100A8 (50 nM), alone or combined; B: in absence (control) or in presence of TGFβ1 (0.02 ng/ml) and S100A8 (10 nM) and S100A9 (10 nM), alone or combined. In each experimental set, the median value of Abs450nm of untreated cells was calculated and used as reference. All the other values were expressed as percentage to the reference. Columns and bars show mean and standard errors, respectivelty. Student’s t test: * = p<0.05. Click here for file
BxPC3, Capan1, MiaPaCa2, Panc1 and BxPC3-SMAD4+ cells were seeded (2000 cells per well) in 96-well cell culture plates and cultured in complete media for 24 hours. […] Cell growth was assessed after 48 hours using the XTT cell viability test (Roche, Milano, Italy). […] The results were expressed as percentage with respect to the median Abs450nm of control cells run in the same experimental set.

MiaPaCa2 [Ca2+]i = assay: Intracellular calcium, fluo-4 epifluorescence, MiaPaCa2; settings: for [Ca2+]i variation per minute per cell: MiaPaCa2, 200 to 480 second interval, vs control cells, One-Way ANOVA, Bonferroni; for effect on the [Ca2+]i decrement induced by TGFβ1: MiaPaCa2, combined with 0.02 ng/ml TGFβ1, 200 to 480 second interval
Protocol: BxPC3 and MiaPaCa2 cells, seeded (80 × 10^3 cells) on coverslips that had been inserted within each well of six well culture plates, were kept in their respective complete media for 24 hours. Coverslips were then incubated for 10 min at 37°C with 3 μM fluo-4 AM (Invitrogen S.R.L.) in an imaging buffer containing 137 mM NaCl, 5 mM KCl, 1.2 mM MgCl2, 0.44 mM KH2PO4, 4.2 mM NaHCO3, 5 mM glucose, and 20 mM HEPES pH 7.4. The cells were carefully washed with the imaging buffer after its removal. Calcium oscillations were then analyzed by means of an inverted epifluorescence microscope equipped with a top stage incubator (Tokai Hit INU-F1, Tokai Hit, Shizuoka-Ken, Japan) in order to keep cells in the optimal culturing environment. As an illumination source, we used a mercury arc discharge lamp and selected excitation and emission wavelengths with an FITC filter cube (EX 465–495 DM505 EM 515–555 nm). Use was made of an 60X1.45NA objective (Nikon Instruments S.P.A., Firenze, Italy) and, in order to minimize phototoxicity and photobleaching, a back-thinned electron multiplied CCD camera C9100-13 Imagem (Hamamatsu Photonics Italia S.R.L., Milano, Italy). After the first minute, required to achieve optimal culture conditions, intracellular fluorescence was continuously monitored (3 frames/sec) for 12 min. In all experiments, […], the cells were maintained in imaging buffer for the first 2 minutes, after which they were stimulated with 10 nM S100A8, 10 nM S100A9 and 50 nM NT-S100A8, alone or in combination with 0.02 ng/ml TGFβ1. For all stimuli, additions were made directly to the microscope chamber without interrupting the recording. The fluorescence signal was quantified by measuring the mean pixel value of a manually selected cellular area for each frame of the image stack using the HCimage system (Hamamatsu Photonics Italia S.R.L.). For all the experimental conditions, at least 3 independents sets of experiments were performed.

BxPC3 EMT gene mRNA = assay: Real time PCR for EMT markers, BxPC3; settings: BxPC3, 72 hours
Protocol: BxPC3 and MiaPaCa2 cells (300 × 10^3) were seeded in six well dishes for 24 hours in their complete media. Cells remained non-stimulated (negative control) or were stimulated with 10 nM S100A8, 10 nM S100A9 and 50 nM NT-S100A8, alone or combined with 0.02 ng/ml TGFβ1, for 72 hours. Following stimulation, the cells were collected with 0.25% trypsin (1 mM EDTA) and centrifuged for 10 min at 4,000 rpm. Total RNA was extracted from cells using the High Pure RNA isolation kit (Roche, Monza, Italy), and reverse transcription was performed using 200 ng of total RNA, M-MLV Transcriptase and 250 μM random primers (Invitrogen S.R.L.). Quantitative Real-Time PCR analysis for CDH1 (E-cadherin), CDH2 (N-cadherin), SNAI1 (Snail), SNAI2 (Slug), TWIST1 (Twist), ZEB1, ZEB2, and B2M (β2-micro-globulin) were performed with the LightCycler 480 Real-Time System (Roche Diagnostics, Mannheim, Germany). The primer sequences (shown in Additional file 10: Table S2) and the respective probes were designed using the Universal ProbeLibrary (Roche) and ProbeFinder software (http://www.roche-applied-science.com/). Experimental procedures followed the standard protocol using the LightCycler 480 Probes Master (Roche). β2-microglobulin (B2M) was included as a housekeeping gene control. […]

Substance	cell proliferation response associated with Smad4 expression (BxPC3-SMAD4+)	[Ca2+]i variation per minute per cell (MiaPaCa2 [Ca2+]i)	Twist expression (BxPC3 EMT gene mRNA; 10 nM, levels comparable with those of TGFβ1, Kruskal-Wallis p = 0.018)	effect on the [Ca2+]i decrement induced by TGFβ1 (MiaPaCa2 [Ca2+]i)	Twist median fold increase (BxPC3 EMT gene mRNA; 0.02 ng/ml TGFβ1, RT-PCR, with respect to control cells) [fold]
NT-S100A8: 14 N-terminal aminoacid peptide of S100A8, isolated from PDAC tissues (MLTELEKALNSIID; UniProt P05109 1-14, looked up, fragment)	positive cell proliferation response	significant decrement of [Ca^2+]i	–	–	–
S100A8: inflammatory calcium binding protein S100A8 (ProSpec-Tany TechnoGene)	–	significant decrement of [Ca^2+]i	significantly increased	partly counteracted	–
S100A9: inflammatory calcium binding protein S100A9, S100A8 binding partner	–	–	–	completely reverted	–
TGFβ1: transforming growth factor beta 1 (ProSpec-Tany TechnoGene)	positive cell proliferation response	significant decrement of [Ca^2+]i	–	–	6.32

— publication PMC4108065, “Inflammation and pancreatic cancer: molecular and functional interactions between S100A8, S100A9, NT-S100A8 and TGFβ1” (Cell Communication and Signaling : CCS, 2014)
